Tests used:
human CB2 receptor = target: T1, human CB2 receptor (Homo sapiens, UniProt P34972); assay: CB2 receptor affinity ([3H]-CP-55,940 displacement, HEK cell membranes); type: binding; settings: displacement of [3H]-CP-55,940 at 10 μM
T1 construct: expressed in transfected cells; host or cells: human embryonic kidney (HEK) cells, Semliki Forest Virus system, membrane preparation
Description: (§1) CB1 and CB2 Receptor Affinity
(§2) The affinity of the compounds of the invention for cannabinoid CB2 receptors was determined using membrane preparations of human embryonic kidney (HEK) cells in which the human CB2 receptor is transiently transfected using a Semliki Forest Virus system in conjunction with [^3H]-CP-55,940 as radioligand. After incubation of freshly prepared cell membrane preparation with the [^3H]-ligand, with or without addition of compounds of the invention, separation of bound and free ligand was performed by filtration over glass fiber filters. Radioactivity on the filter was measured by scintillation counting.
(§3) The ability of the compounds to displace the radioligand [^3H]-CP-55,940 was measured at a concentration of 10 μM and values provided as [% inhibition @ 10 μM] both for the CB1 and CB2 receptor assay, The lower % inhibition is, the lower the likelihood of side effects based on CB1 or CB2 receptor inhibition is.

human CB1 receptor = target: T2, human CB1 receptor (Homo sapiens, UniProt P21554); assay: CB1 receptor affinity ([3H]-CP-55,940 displacement, HEK cell membranes); type: binding; settings: displacement of [3H]-CP-55,940 at 10 μM
T2 construct: expressed in transfected cells; host or cells: human embryonic kidney (HEK) cells, Semliki Forest Virus system, membrane preparation
Description: as §1
as §2, with “cannabinoid” for “cannabinoid CB2”, “CB1” for “CB2”, “[3H]-CP-55,940” for “[^3H]-CP-55,940”
as §3

ABCA1 protein = assay: Detection of upregulation of ABCA1 protein in cells (ApoA-I binding, high content image analysis); type: cell-based; settings: THP-1 macrophage cells; for % increase of ABCA1 at 3 μM: compound at 3 μM, 24 hrs; for EC50: ABCA1 protein increasing efficacy
Description: Detection of Upregulation of ABCA1 Protein in Cells
The ability of compounds of the invention to increase the level of ABCA1 protein is determined in replicate cultures of THP-1 macrophage cells in 96-well microplates. Cells are plated at an initial density of 100,000 cells/well in 100 μl medium and differentiated to adherent macrophages with the addition of PMA (100 nM) for 68 hrs in 10% fetal bovine serum, 3 μl/L of b-mercaptoethanol, RPMI-1640 medium. Then, cells are incubated with RPMI-1640 medium containing 1% FCS, 25 μg/ml acetylated LDL, for 24 hours at 37° C. Following incubation with acetylated LDL, cells are washed twice with 50 μl PBS and incubated with 100 μl of RPMI-1640 medium containing the compound of interest solubilized in DMSO for an additional 24 hrs. The final DMSO concentration in presence of cells is maintained at 0.5%. ApoA-I binding assay using High Content Image Analysis is initiated by replacing with fresh medium, RPMI without Phenol Red, 0.2% BSA containing AlexaFluor®647 labeled ApoA-I for 2 h/37° C./5% CO2. Then, cells are fixed with 4% Formaldehyde in PBS (15 min, RT). Following Nuclei are stained with Hoechst solution (3 μM PBS) and Cytoplasm with Cell Mask Blue (2 μg/ml PBS), 15 min, RT. Finally the stained cells are fixed with a second round of formaldehyde treatment. Fixed stained cells are washed and kept in PBS at 4° C. and can be read immediately until one month after preparation.
The Alexa Fluor 647-labeled Apolipoprotein A-I (20 nM) was prepared as follows: Human recombinant Apolipoprotein A-I (ApoA-I) was exchanged to a buffer of 0.02 M NaHCO3 at pH 8.2 on an NAP desalting column (GE Healthcare) and brought to a concentration to 40 μM (1.13 mg/ml) by adjustment with the same buffer. The ApoA-I was fluorescently labeled by incubation with Alexa Fluor carboxylic acid succimidyl ester (Alexa Fluor 647, Invitrogen A-20006) at a 2:1 molar ratio (Alexa to ApoA-I) for 1 h under shaking at RT. The remaining unconjugated label was removed by buffer exchange to 0.02M NaHCO3 at pH 8.2.
Imaging and data collection were performed on an OPERA confocal microplate imaging reader using a 20× water immersion objective and UV360 or 405 laser to identify the cell nuclei and a 635 laser to identify the fluorescent ApoA-I. Eight fields of view are captured per well. Image capture and analysis was performed with the Acapella software. Background fluorescence detected in control wells without ApoA-I was subtracted.
Using XLfit3 program (ID Business Solutions Ltd. UK), the model 205 for Dose Response One Site is used to calculate the EC50 values. […] Particularly, the compounds of the present invention have EC50 values in a range of 0.1 μM to 3 μm.

T1 sequence (P34972 whole entry): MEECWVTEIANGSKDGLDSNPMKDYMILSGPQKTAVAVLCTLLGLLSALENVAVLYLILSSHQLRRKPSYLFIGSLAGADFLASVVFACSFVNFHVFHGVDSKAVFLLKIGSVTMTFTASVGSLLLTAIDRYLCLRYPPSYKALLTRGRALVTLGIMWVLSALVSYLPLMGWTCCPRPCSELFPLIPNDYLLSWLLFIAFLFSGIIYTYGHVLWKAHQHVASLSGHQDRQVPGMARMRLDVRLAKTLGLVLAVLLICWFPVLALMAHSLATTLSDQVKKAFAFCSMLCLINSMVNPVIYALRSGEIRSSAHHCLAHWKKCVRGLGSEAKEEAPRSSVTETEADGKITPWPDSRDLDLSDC
T2 sequence (P21554 whole entry): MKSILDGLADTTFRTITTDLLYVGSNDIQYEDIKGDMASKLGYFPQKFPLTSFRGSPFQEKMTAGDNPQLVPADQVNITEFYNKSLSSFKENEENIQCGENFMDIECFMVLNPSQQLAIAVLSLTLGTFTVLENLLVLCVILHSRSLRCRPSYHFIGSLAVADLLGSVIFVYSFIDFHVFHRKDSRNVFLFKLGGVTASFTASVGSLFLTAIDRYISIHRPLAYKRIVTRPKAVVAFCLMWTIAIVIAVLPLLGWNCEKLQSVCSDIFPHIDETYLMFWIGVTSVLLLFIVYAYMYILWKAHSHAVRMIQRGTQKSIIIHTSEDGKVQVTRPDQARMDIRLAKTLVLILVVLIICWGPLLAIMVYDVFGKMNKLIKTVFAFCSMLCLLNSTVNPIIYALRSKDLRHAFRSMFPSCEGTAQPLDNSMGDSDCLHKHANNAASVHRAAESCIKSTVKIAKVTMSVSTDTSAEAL

| SMILES | CB2 receptor affinity [% inhibition @ 10 μM] (human CB2 receptor) | CB1 receptor affinity [% inhibition @ 10 μM] (human CB1 receptor) | % increase of ABCA1 at 3 μM (ABCA1 protein) | EC50 (ABCA1 protein) |
| --- | --- | --- | --- | --- |
| O=C(Nc1cccnc1)c1cnc(OCC(F)(F)F)c(C2=CCCC2)c1 [Example 7, 5-cyclopent-1-enyl-N-pyridin-3-yl-6-(2,2,2-trifluoro-ethoxy)-nicotinamide] | 3 % inhibition | 11 % inhibition | >45% @ 3 μM |  |
| O=C(Nc1cnccn1)c1cnc(OCC(F)(F)F)c(C2CCCCC2)c1 [Example 27, 5-cyclohexyl-N-pyrazin-2-yl-6-(2,2,2-trifluoro-ethoxy)-nicotinamide] | 11 % inhibition | 18 % inhibition | >45% @ 3 μM |  |
| O=C(NCc1nc(C(F)(F)F)no1)c1cnc(OCC(F)(F)F)c(C2=CCOCC2)c1 [Example 5, 5-(3,6-dihydro-2H-pyran-4-yl)-6-(2,2,2-trifluoro-ethoxy)-N-(3-trifluoromethyl-[1,2,4]oxadiazol-5-ylmethyl)-nicotinamide] | −2 % inhibition | 15 % inhibition |  | 2.92 µM |
| O=C(NCc1nc(C(F)(F)F)no1)c1cnc(OCC(F)(F)F)c(C2CCCCC2)c1 [Example 4, 5-cyclohexyl-6-(2,2,2-trifluoro-ethoxy)-N-(3-trifluoromethyl-[1,2,4]oxadiazol-5-ylmethyl)-nicotinamide] | 2 % inhibition | 31 % inhibition |  | 0.15 µM |
| O=C(Nc1ccccn1)c1cnc(OCC(F)(F)F)c(C2CCCC2)c1 [Example 10, 5-cyclopentyl-N-pyridin-2-yl-6-(2,2,2-trifluoro-ethoxy)-nicotinamide] | −9 % inhibition | 9 % inhibition |  | 1.01 µM |
| O=C(Nc1ccncn1)c1cnc(OCC(F)(F)F)c(C2CCCCC2)c1 [Example 21, 5-cyclohexyl-N-pyrimidin-4-yl-6-(2,2,2-trifluoro-ethoxy)-nicotinamide] | −4 % inhibition | 38 % inhibition | >45% @ 3 μM |  |
| O=C(Nc1cccnn1)c1cnc(OCC(F)(F)F)c(C2CCCC2)c1 [Example 9, 5-cyclopentyl-N-pyridazin-3-yl-6-(2,2,2-trifluoro-ethoxy)-nicotinamide] | 9 % inhibition | 7 % inhibition |  | 10 µM |

Second part, led by results:

| CB2 receptor affinity [% inhibition @ 10 μM] (human CB2 receptor) | CB1 receptor affinity [% inhibition @ 10 μM] (human CB1 receptor) | SMILES | % increase of ABCA1 at 3 μM (ABCA1 protein) | EC50 (ABCA1 protein) |
| --- | --- | --- | --- | --- |
| 14 % inhibition | 17 % inhibition | O=C(NCc1csc(C2CC2)n1)c1cnc(OCC(F)(F)F)c(C2CCCC2)c1 [Example 18, 5-cyclopentyl-N-(2-cyclopropyl-thiazol-4-ylmethyl)-6-(2,2,2-trifluoro-ethoxy)-nicotinamide] | >45% @ 3 μM |  |
| 14 % inhibition | 49 % inhibition | O=C(NCc1ccn(CC2CC2)n1)c1cnc(OCC(F)(F)F)c(C2CCCCC2)c1 [Example 15, 5-cyclohexyl-N-(1-cyclopropylmethyl-1H-pyrazol-3-ylmethyl)-6-(2,2,2-trifluoro-ethoxy)-nicotinamide] | >45% @ 3 μM |  |
| 5 % inhibition | 45 % inhibition | COc1cc(CNC(=O)c2cnc(OCC(F)(F)F)c(C3CCCCC3)c2)on1 [Example 13, 5-cyclohexyl-N-(3-methoxy-isoxazol-5-ylmethyl)-6-(2,2,2-trifluoro-ethoxy)-nicotinamide] | >45% @ 3 μM |  |
| 12 % inhibition | 29 % inhibition | COc1cc(CNC(=O)c2cnc(OCC(F)(F)F)c(C3CCCC3)c2)on1 [Example 12, 5-cyclopentyl-N-(3-methoxy-isoxazol-5-ylmethyl)-6-(2,2,2-trifluoro-ethoxy)-nicotinamide] | >45% @ 3 μM |  |

Reference: patent publication US8629166B2, “5-cycloalkyl- or 5-heterocyclyl-nicotinamides” (Hoffmann-La Roche Inc., priority 2011, dated 2014)
